# US20070173438A1, “[PSI[CH2NH]PG4] glycopeptide antibiotic analogs” (The Scripps Research Institute, priority 2006, published 2007)
# Values joined by “and” are separate entries in the source; they are usually repeats but may differ in a detail not shown here. Identical values can stand only once.
# Tests used:
# [1] = tested on: N,N′-Ac2-Lys-D-Ala-D-Ala (2); assay: UV difference titration binding constant with model ligand N,N′-Ac2-Lys-D-Ala-D-Ala; settings: for Ka, affinity for D-Ala-D-Ala (Ac2-L-Lys-D-Ala-D-Ala, 2): association constant, 0.02 M sodium citrate buffer, Scatchard plot
# Description: (§1) Binding Constant Determination. The binding constants for compounds 5 and 41 for association with the model ligands N,N′-Ac2-Lys-D-Ala-D-Ala and N,N′-Ac2-Lys-D-Ala-D-Lac were determined according to literature (Nieto, M.; Perkins, H. R. Biochem. J. 1971, 124, 845; Nieto, M.; Perkins, H. R. Biochem. J. 1971, 124, 773; Nieto, M.; Perkins, H. R. Biochem. J. 1971, 124, 789) protocols. UV difference experiments were carried out on a CARY 3E UV-Vis spectrometer. UV scans were run with a baseline correction that consisted of 0.02 M sodium citrate buffer and covered a range from 200 to 345 nm. A solution of 5 or 41 (1.1×10^−4 M in 0.02 M sodium citrate buffer) was placed into a quartz UV cuvette (1.0 cm path length) and the UV spectrum recorded versus a reference cell containing 0.02 M sodium citrate buffer. UV spectra were recorded after each addition of a solution of N,N′-Ac2-Lys-D-Ala-D-Ala or N,N′-Ac2-Lys-D-Ala-D-Lac in 0.02 M sodium citrate buffer to each cell from 0.1 to 140.0 equivalents. The absorbance value at the λmax was recorded and the running change in absorbance, ΔAx equiv (Ainitial−Ax equiv, ) measured. The number of ligand equivalents was plotted versus ΔA to afford the ligand binding titration curve. The break point of this curve is the saturation point of the system and its xy coordinates determined by establishing the intersection of the linear fits of the pre and postsaturation curves. ΔAsaturation was calculated and employed to determine the concentration of free ligand in solution at each titration. ΔA was plotted versus ΔA/free ligand concentration to give a Scatchard plot from which the binding constants were determined.
# [2] = tested on: VanA Enterococcus faecalis (BM4166); assay: antimicrobial assay against VanA resistant organism; type: cell-based; settings: for potency weaker than vancomycin and its aglycon against sensitive E. faecalis: MIC against VanA BM4166 compared with vancomycin/aglycon MIC against sensitive E. faecalis
# From the text: (§2) It is the most difficult of the resistant organisms to treat (vs VanB) and characteristic of such organisms, they grow unchallenged enlisting a D-Ala-D-Ala peptidoglycan cell wall precursor, but switch to D-Ala-D-Lac upon glycopeptide treatment.
# [3] = tested on: N,N′-Ac2-Lys-D-Ala-D-Lac (4); assay: UV difference titration binding constant with model ligand N,N′-Ac2-Lys-D-Ala-D-Lac; settings: for Ka, affinity for D-Ala-D-Lac (Ac2-L-Lys-D-Ala-D-Lac, 4): association constant, 0.02 M sodium citrate buffer, Scatchard plot
# Description: as §1
# [4] = tested on: 3 (methylene analogue of Ac2-L-Lys-D-Ala-D-Ala); settings: cited from earlier work
# [5] = tested on: N,N′-Ac2-Lys-D-Ala-D-Lac (4); settings: cited from earlier work
# sensitive E. faecalis = assay: antimicrobial activity against sensitive E. faecalis; type: cell-based; settings: Enterococcus faecalis
# From the text: as §2
# [6] = tested on: enterococci resistant to vancomycin, VanA and VanB; settings: literature; cited from earlier work
SMILES,"increase in binding affinity for D-Ala-D-Ala, 5 versus 41 ([1]; 5 versus carbamate 41) [fold]","Ka, affinity for D-Ala-D-Ala (Ac2-L-Lys-D-Ala-D-Ala, 2) [1] [M⁻¹]",reduction in affinity for D-Ala-D-Ala relative to the vancomycin aglycon ([1]; relative to vancomycin aglycon),potency weaker than vancomycin and its aglycon against sensitive E. faecalis [2],MIC ([2]; VanA E. faecalis BM4166) [µg/mL],potency relative to vancomycin or its aglycon (more potent) ([2]; VanA E. faecalis BM4166),"increase in binding affinity for D-Ala-D-Lac, 5 versus 41 ([3]; 5 versus carbamate 41) [fold]","Ka, affinity for D-Ala-D-Lac (Ac2-L-Lys-D-Ala-D-Lac, 4) [3] [M⁻¹]",increase in affinity for D-Ala-D-Lac relative to the vancomycin aglycon ([3]; relative to vancomycin aglycon),affinity for 3 less than that of 2 ([4]; relative to Ac2-L-Lys-D-Ala-D-Ala (2)),affinity for 3 greater than that of 4 ([4]; relative to Ac2-L-Lys-D-Ala-D-Lac (4)) [fold],reduction of binding to D-Ala-D-Lac ligand versus D-Ala-D-Ala ([5]; literature) [fold],destabilizing lone pair/lone pair interaction with ester oxygen of 4 ([5]; share of lost binding energy) [kcal/mol],"reduced binding affinity of 4 ([5]; versus 2, total loss) [kcal/mol]",MIC (sensitive E. faecalis) [µg/mL],drop in antimicrobial activity with D-Ala-D-Lac resistant bacteria [6] [fold],MIC ([2]; Enterococcus faecalis) [µg/mL]
"CN[C@H](CC(C)C)C(=O)N[C@H]1C(=O)N[C@@H](CC(N)=O)C(=O)N[C@H]2CN[C@H]3C(=O)N[C@H](C(=O)N[C@H](C(=O)O)c4cc(O)cc(O)c4-c4cc3ccc4O)[C@H](O)c3ccc(c(Cl)c3)Oc3cc2cc(c3O)Oc2ccc(cc2Cl)[C@H]1O [Compound 5, [ψ[CH2NH]Tpg^4]vancomycin aglycon]",3,4800,37 fold and 35 fold,roughly 30 fold,31,roughly 40 fold,1.2,5200,43 fold and 40 fold,–,–,–,–,–,–,–,–
CN[C@H](CC(C)C)C(=O)N[C@H]1C(=O)N[C@@H](CC#N)C(=O)N[C@H]2CN(C(=O)OC)[C@H]3C(=O)N[C@H](C(=O)N[C@H](COCOCCOC)c4cc(OC)cc(OC)c4-c4cc3ccc4OC)[C@H](O)c3ccc(c(Cl)c3)Oc3cc2cc(c3OC)Oc2ccc(cc2Cl)[C@H]1O [Compound 41],–,1600,–,roughly 30 fold,31,roughly 40 fold,–,4100,–,–,–,–,–,–,–,–,–
"CN[C@H](CC(C)C)C(=O)N[C@H]1C(=O)N[C@@H](CC(N)=O)C(=O)N[C@H]2C(=O)N[C@H]3C(=O)N[C@H](C(=O)N[C@H](C(=O)O)c4cc(O)cc(O)c4-c4cc3ccc4O)[C@H](O)c3ccc(c(Cl)c3)Oc3cc2cc(c3O)Oc2ccc(cc2Cl)[C@H]1O [vancomycin aglycon, reference compound]",–,170000,–,–,640,–,–,120,–,–,–,–,–,–,–,–,–
CN[C@H](CC(C)C)C(=O)N[C@H]1C(=O)N[C@@H](CC(N)=O)C(=O)N[C@H]2C(=O)N[C@H]3C(=O)N[C@H](C(=O)N[C@H](C(=O)O)c4cc(O)cc(O)c4-c4cc3ccc4O)[C@H](O)c3ccc(c(Cl)c3)Oc3cc2cc(c3O[C@@H]2O[C@H](CO)[C@@H](O)[C@H](O)[C@H]2O[C@H]2C[C@](C)(N)[C@H](O)[C@H](C)O2)Oc2ccc(cc2Cl)[C@H]1O [vancomycin],–,–,–,–,–,–,–,–,–,approximately 10 fold,100,1000,2.6,4.1,1 to 2.5,1000,2000
